The results in this text go back to ChEMBL document CHEMBL2321754, “Novel small molecule protein arginine deiminase 4 (PAD4) inhibitors” (Bioorg Med Chem Lett, 2013).

In general, Ki refers to a dissociation constant, usually derived from enzyme kinetics or from competition with a known ligand.

The structures appear in SMILES notation.

Assay [1] addresses Carbonic anhydrase 12 (Homo sapiens, UniProt O43570). In words: Inhibition of human CA12 by stopped-flow assay.
Assay [2] concerns the target Carbonic anhydrase 1 (Homo sapiens, UniProt P00915). The experiment in a line: Inhibition of human CA1 by stopped-flow assay.
Assay [3] has as its target Carbonic anhydrase 2 (Homo sapiens, UniProt P00918). The experiment in a line: Inhibition of human CA2 by stopped-flow assay.
Assay [4] addresses Carbonic anhydrase 9 (Homo sapiens, UniProt Q16790).
Description: Inhibition of human CA9 by stopped-flow assay

Chain of Carbonic anhydrase 12 (O43570 whole entry): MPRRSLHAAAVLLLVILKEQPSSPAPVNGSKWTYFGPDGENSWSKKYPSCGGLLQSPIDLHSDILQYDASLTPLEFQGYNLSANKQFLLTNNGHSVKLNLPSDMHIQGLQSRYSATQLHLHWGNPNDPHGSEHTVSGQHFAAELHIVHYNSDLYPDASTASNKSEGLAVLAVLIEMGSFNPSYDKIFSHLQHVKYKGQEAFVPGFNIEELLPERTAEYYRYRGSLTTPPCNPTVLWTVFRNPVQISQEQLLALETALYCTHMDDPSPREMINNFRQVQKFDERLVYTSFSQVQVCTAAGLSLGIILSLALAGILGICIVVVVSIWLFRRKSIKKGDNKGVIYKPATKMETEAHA
Chain of Carbonic anhydrase 1 (P00915 whole entry): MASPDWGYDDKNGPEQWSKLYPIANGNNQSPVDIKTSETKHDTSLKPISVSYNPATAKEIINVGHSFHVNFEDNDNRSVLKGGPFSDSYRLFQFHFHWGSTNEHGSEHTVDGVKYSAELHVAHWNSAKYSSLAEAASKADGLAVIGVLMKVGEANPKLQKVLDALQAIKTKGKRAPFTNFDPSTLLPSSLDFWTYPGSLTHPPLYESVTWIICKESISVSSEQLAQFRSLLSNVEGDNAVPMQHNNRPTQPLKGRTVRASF

On to `N=C(N)Nc1ccc(O)cc1`, for which the Ki in assay [1] stood at 14600 nM; in assay [2], 8340 nM; in assay [3], 7510 nM; in assay [4], 4130 nM.

Take `N=C(N)NCCc1ccc(S(N)(=O)=O)cc1`: the Ki turned out to be 14 nM in assay [1], 240 nM in assay [2], 89 nM in assay [3] and 34 nM in assay [4].

For `N=C(N)Nc1ccc(C(=O)O)cc1` [4-GUANIDINO-BENZOIC ACID], the Ki in assay [1] is 480 nM; in assay [2], 630 nM; in assay [3], 1150 nM; in assay [4] it was 2560 nM.
